From ChEMBL document CHEMBL2163222 (J Med Chem, 2012)

How the values were obtained:
[1] = system: Hs 683; assay: cells; details: Homo sapiens, Hs 683, 72 h
[2] = system: OE33; assay: Growth inhibition of human OE33 cells after 3 days by MTT assay; format: functional, cell-based; details: OE33, 72 h
[3] = Growth inhibition of human OE21 cells after 3 days by MTT assay; format: functional, cell-based; details: OE21, 72 h
[4] = cells; details: Homo sapiens, U373 MG, 72 h
[5] = system: T98G; assay: cells; details: Homo sapiens, 72 h

| SMILES | IC50 [1] | IC50 [2] | IC50 [3] | IC50 [4] | IC50 [5] |
| --- | --- | --- | --- | --- | --- |
| Cc1nccc2c1[nH]c1cc(OCCc3ccccc3)ccc12 | 21 µM | 7.9 µM | 14 µM | 9.1 µM | 21 µM |
| Cc1c2c(cc[n+]1Cc1ccccc1F)c1ccc(OCC3CCCCC3)cc1n2CC1CCCCC1 | 0.25 µM | 0.35 µM | 0.35 µM | 1.4 µM | 0.07 µM |
| Cc1c2c(cc[n+]1CCC(C)C)c1ccc(OCCC(C)C)cc1n2CCC(C)C | 0.26 µM |  | 0.48 µM | 0.22 µM | 0.41 µM |
| Cc1nccc2c3ccc(OCc4cccc(F)c4)cc3n(Cc3cccc(F)c3)c12 | 18 µM | 16 µM | 7.9 µM | 0.4 µM | 27 µM |
| Cc1nccc2c3ccc(O)cc3n(Cc3ccccc3)c12 | 79 µM | 35 µM | 35 µM | 80 µM | 81 µM |
| CCCn1c2cc(OCc3ccccc3)ccc2c2ccnc(C)c21 | 13 µM | 9 µM | 23 µM | 26 µM | 34 µM |
| Cc1c2c(cc[n+]1CCC(C)C)c1ccc(OCc3ccccc3)cc1n2Cc1ccccc1 | 0.37 µM |  | 0.5 µM | 0.39 µM | 1.2 µM |
| Cc1nccc2c1[nH]c1cc(OCc3ccncc3)ccc12 | 8.1 µM | 6.3 µM | 5 µM | 2.5 µM | 3.6 µM |
| Cc1c2c(cc[n+]1Cc1ccccc1)c1ccc(OCc3cccc(F)c3)cc1n2Cc1cccc(F)c1 | 2.8 µM | 2.9 µM | 0.4 µM | 0.8 µM | 0.97 µM |
| Cc1nccc2c1[nH]c1cc(OCc3cccc4ccccc34)ccc12 | 19 µM | 8.2 µM | 33 µM | 7.4 µM | 12 µM |
| Cc1nccc2c1[nH]c1cc(OCc3ccccc3)ccc12 | 17 µM | 4.1 µM | 21 µM | 9.3 µM | 17 µM |
| Cc1c2c(cc[n+]1CCc1ccccc1)c1ccc(OCC3CCCCC3)cc1n2CC1CCCCC1 | 0.31 µM |  |  | 0.2 µM | 0.26 µM |
| Cc1c2c(cc[n+]1CCO)c1ccc(OCC3CCCCC3)cc1n2CC1CCCCC1 | 3.8 µM |  |  | 1.7 µM | 2.6 µM |
| Cc1nccc2c1[nH]c1cc(OCc3ccccn3)ccc12 | 20 µM | 23 µM | 16 µM | 21 µM | 20 µM |
| Cc1c2c(cc[n+]1Cc1ccc(F)cc1)c1ccc(OCC3CCCCC3)cc1n2CC1CCCCC1 | 3.1 µM | 1 µM | 1.4 µM | 0.04 µM | 2 µM |
| Cc1c2c(cc[n+]1CCc1ccccc1)c1ccc(OCCC(C)C)cc1n2CCC(C)C | 3.1 µM |  | 3.7 µM | 3.4 µM | 3.5 µM |
| Cc1nccc2c3ccc(OCc4ccc(F)cc4)cc3n(Cc3ccc(F)cc3)c12 | 17 µM | 25 µM | 15 µM | 30 µM | 14 µM |
| Cc1c2c(cc[n+]1Cc1ccccc1)c1ccc(OCCC(C)C)cc1n2CCC(C)C | 0.47 µM |  |  | 0.38 µM | 0.6 µM |
| Cc1c2c(cc[n+]1Cc1ccccc1F)c1ccc(OCc3ccc(F)cc3)cc1n2Cc1ccc(F)cc1 | 1.2 µM | 1.6 µM | 1.6 µM | 0.5 µM | 0.43 µM |
| CCCn1c2cc(OCc3ccccc3)ccc2c2cc[n+](Cc3ccccc3F)c(C)c21 | 0.45 µM | 0.25 µM | 0.42 µM | 0.39 µM | 1.8 µM |
| Cc1c2c(cc[n+]1Cc1ccccc1F)c1ccc(OCc3cccc(F)c3)cc1n2Cc1cccc(F)c1 | 2.2 µM | 3 µM | 1.4 µM | 0.6 µM | 0.7 µM |

| SMILES | IC50 [1] | IC50 [2] | IC50 [3] | IC50 [4] | IC50 [5] |
| --- | --- | --- | --- | --- | --- |
| COc1ccc2c(c1)[nH]c1c(C)nccc12 [HARMINE] |  | 18 µM | 32 µM | 32 µM | 24 µM |
| Cc1nccc2c1[nH]c1cc(OCC(C)C)ccc12 | 23 µM | 25 µM | 12 µM | 24 µM | 22 µM |
| Cc1c2c(cc[n+]1CCO)c1ccc(OCCC(C)C)cc1n2CCC(C)C | 4 µM |  | 7.6 µM | 2.5 µM | 2.9 µM |
| CCCCCC[n+]1ccc2c3ccc(OCc4ccccc4)cc3n(Cc3ccccc3)c2c1C | 0.6 µM |  | 1.9 µM | 0.7 µM | 3.1 µM |
| Cc1c2c(cc[n+]1Cc1ccc(F)cc1)c1ccc(OCc3ccccc3)cc1n2Cc1ccccc1 | 1.6 µM | 2.4 µM | 0.61 µM | 0.6 µM | 0.6 µM |
| CCC[n+]1ccc2c3ccc(OCc4ccccc4)cc3n(Cc3ccccc3)c2c1C | 0.6 µM |  | 3.4 µM | 2.5 µM | 11 µM |
| Cc1c2c(cc[n+]1Cc1ccc(F)cc1)c1ccc(OCc3ccc(F)cc3)cc1n2Cc1ccc(F)cc1 | 13 µM | 3.1 µM | 3.7 µM | 2.9 µM | 14 µM |
| Cc1nccc2c3ccc(OCCC(C)C)cc3n(CCC(C)C)c12 | 30 µM |  | 30 µM | 33 µM | 35 µM |
| Cc1c2[nH]c3cc(OCc4ccccc4)ccc3c2cc[n+]1Cc1ccccc1 | 3.6 µM | 5.5 µM | 6 µM | 3.9 µM | 5.6 µM |
| Cc1nccc2c1[nH]c1cc(OCCCC(F)(F)F)ccc12 | > 100 µM | > 100 µM | > 100 µM | > 100 µM | 86 µM |
| Cc1c2c(cc[n+]1CCc1ccccc1)c1ccc(OCc3ccccc3)cc1n2Cc1ccccc1 | 2.3 µM |  | 2.4 µM | 2 µM | 2.4 µM |
| Cc1nccc2c1[nH]c1cc(OCC3CCCCC3)ccc12 | 22 µM | 8.1 µM | 8.3 µM | 7.5 µM | 7.2 µM |
| Cc1c2c(cc[n+]1Cc1ccccc1F)c1ccc(OCc3ccccc3)cc1n2Cc1ccccc1 | 0.44 µM | 0.7 µM | 0.38 µM | 0.5 µM | 0.37 µM |
| CCCn1c2cc(OCc3ccccc3)ccc2c2cc[n+](Cc3ccc(F)cc3)c(C)c21 | 3.1 µM | 1 µM | 1.9 µM | 0.88 µM | 5.7 µM |
| CCCn1c2cc(OCc3ccccc3)ccc2c2cc[n+](Cc3ccccc3)c(C)c21 | 2.6 µM | 0.3 µM | 0.57 µM | 0.41 µM | 1.7 µM |
| Cc1nccc2c1[nH]c1cc(OCCO)ccc12 | 41 µM | 63 µM | 30 µM | 42 µM | 53 µM |
| Cc1c2c(cc[n+]1Cc1ccccc1)c1ccc(OCc3ccc(F)cc3)cc1n2Cc1ccc(F)cc1 | 0.9 µM | 1.4 µM | 0.5 µM | 0.43 µM | 0.4 µM |
| Cc1c2c(cc[n+]1CCC(C)C)c1ccc(OCC3CCCCC3)cc1n2CC1CCCCC1 | 0.42 µM |  |  | 0.4 µM | 0.43 µM |
| C=CCOc1ccc2c(c1)[nH]c1c(C)nccc12 | 28 µM | 30 µM | 27 µM | 32 µM | 32 µM |
| Cc1c2c(cc[n+]1CCO)c1ccc(OCc3ccccc3)cc1n2Cc1ccccc1 | 31 µM |  | 25 µM | 9 µM | 61 µM |
| Cc1nccc2c1[nH]c1cc(OC(=O)c3ccccc3)ccc12 | 53 µM | 31 µM | 30 µM | 27 µM | 42 µM |
